Laboratory results published in patent US6723702B2, “Use of relaxin treat diseases related to vasoconstriction” (RAS Medical, Inc., priority 2000, dated 2004).
Marks after values point to notes of the source that are not given here.

Columns and labels:
intact, female rats = assay: Hematocrit and plasma osmolality during chronic relaxin infusion; assay type: in vivo, rat; conditions: for Hematocrit, Difference between baseline and Day 5 / Plasma osmolality, Difference between baseline and Day 5: 4 μg/h s.c. infusion
Protocol: At the beginning of each experiment, immediately after opening the arterial catheter and before infusion of fluids, 100 μl of blood was collected into a heparinized tube. After centrifugation to separate blood cells from plasma, the latter was frozen at −20° C. until assay for osmolality. Then, three 30-minute baseline urine collections with midpoint blood samples and continuous recording of MAP were made on one or two occasions separated by at least 48 hours, in order to accurately measure control MAP, GFR, ERPF, and ERVR (MAP/ERPF). The hematocrit was also routinely determined on these midpoint blood samples. The renal clearances of IN and PAH were used to assess GFR and ERPF, respectively. […] Next, an osmotic minipump containing purified porcine RLX (4 μg/hour; n=7 rats), rhRLX (4 μg/hour; n=5) or vehicle (n=4) was implanted. MAP, GFR, ERPF, and ERVR were assessed on days 2 and 5 of the infusion, and 5-12 days after depletion of the 7-day minipump. Details of our methodologies for the assessment of GFR and ERPF in chronically instrumented, conscious rats including the measurement of IN and PAH in both plasma and urine have been previously published. Conrad (1984) Kidney Int. 26:24-29; and Danielson and Conrad (1995) J. Clin. Invest. 96:482-490. Circulating relaxin concentrations of 20-40 ng/mL have been measured in rats of 12-14 gestational days. Sherwood et al. (1980) Endocrinol. 107:691-698. An infusion rate of 4 μg/hour for purified porcine RLX or rhRLX would be expected to produce plasma levels of 20-40 ng/mL.
Plasma osmolality was measured using a freezing-point depression instrumentation osmometer (Model 3MO, Advanced Instruments, Needham Heights, Mass.). Plasma and urine IN and PAH were assayed by standard techniques. Urinary sodium concentration was measured by ion selective electrode (Sodium-Potassium Chemistry Module, Beckman Instruments, Inc., Brea, Calif.). Urinary cGMP was determined by specific radioimmunoassay as previously described. Conrad and Vernier (1989) Am. J. Physiol. 257:R847-R853. Urinary NOX was measured by reduction of nitrate to nitrite, the latter determined by the Griess reaction which produces a calorimetric product measured at 540 nm (Nitrate/Nitrite Colorimetric Assay Kit, Cayman Chemical, Ann Arbor, Mich.).
Data are presented as mean±SEM. rhRLX, recombinant human relaxin. RLX was infused at 4 μg/h by osmotic minipump s.c. There were 7, 4, and 5 rats, respectively, in the porcine RLX, vehicle, and rhRLX groups at baseline, and days 2 and 5 of treatment. During the post RLX period, 6, 2, and 2 rats were studied in the porcine RLX, vehicle and rhRLX groups. Two of the rats in the vehicle group received Ringer's solution (vehicle for porcine RLX), and two received 20 mM sodium acetate, pH 5.0 (vehicle for rhRLX). The results were not different, and therefore, the data were combined. *p<0.05 vs baseline, Hp<0.05 RLX vs vehicle.

[1] = Relaxin ELISA in serum (Example 5); assay type: in vivo, rat; conditions: day 10
Description: The pulmonary artery trunk, right and left extrapulmonary branches were removed en bloc, cleaned of surrounding tissue, and weighed. The left lung was and excised and the entire hilar artery dissected from parenchyma and weighed (Tozzi et al. (1994) Am. J. Respir. Crit. Care Med. 149:1316-1326). Segments were hydrolyzed, and total hydroxyproline and protein determined (Poiani et al. (1990) Circ. Res. 66:968-978). Approximately 3 cc of whole blood was centrifuged, serum aspirated, and sample frozen at −20° C. for determination of rRlx levels by ELISA assay.
Levels of relaxin in serum were measured in a quantitative sandwich immunoassay, as previously described (Unemori et al. (1996) J. Clin. Invest. 98:2739-2745).

db/db mice = assay: Full thickness wound healing in db/db mice; assay type: in vivo, mouse
Protocol: To determine whether rhRlx would improve healing in this model of impaired healing, standardized full thickness (1.5 cm×1.5 cm) wounds were made on the back of db/db mice (Jackson Laboratories, Bar Harbor, Me.). Mice were treated continuously for 21 days with rhRlx via a subcutaneously implanted Alzet pump at a dose of either 0.1 mg/kg/day or 0.2 mg/kg/day. Wound areas were measured in the course of the study. Healing is presented as wound area on day 14 relative to the original size of the wound on day 0 and is calculated as: % of original wound area=[Area on day 14/area on day 0]×100. […] Wound closure was expressed as “% of original wound area.” There were 8-20 animals per group. Wound closure was 91.4% in control group vs. 64% in the relaxin-treated group (p<0.05 by Student-Newman-Kuels test). The differences in the extent of wound healing were small among vehicle control and low dose of rhRlx treatment as well as PDGF (5 μg/wound/day for 5 days) treated mice.
At day 21-post surgery, the wounds were also excised and fixed in formalin prior to paraffin embedding. Sections from the middle of the wound were stained with Masson's trichrome and evaluated by two investigators. […] Inflammatory cell accumulation was present at the wound edges.
Neovascularization is a key component of granulation tissue formation. New blood vessel formation is stimulated by a variety of growth factors including bFGF, and VEGF. […] Immunohistochemical staining of the midsection of full thickness wounds using polyclonal antibody to von Willebrand factor VIII-related antigen was used to identify new blood vessels in the wounds.

[2] = Baseline, before 4 μg/h s.c. minipump

Substance	Hematocrit, Difference between baseline and Day 5 (intact, female rats) [%]	Plasma osmolality, Difference between baseline and Day 5 (intact, female rats) [mOsm/kg H2O]	Hematocrit (intact, female rats; [2]) [%]	Plasma osmolality (intact, female rats; [2]) [mOsm/kg H2O]	Hematocrit (intact, female rats; Day 2 of 4 μg/h s.c. infusion)	Plasma osmolality (intact, female rats; Day 2 of 4 μg/h s.c. infusion)	Hematocrit (intact, female rats; Day 5 of 4 μg/h s.c. infusion)	Plasma osmolality (intact, female rats; Day 5 of 4 μg/h s.c. infusion)	Hematocrit (intact, female rats; Post RLX Day 5-12) [%]	Plasma osmolality (intact, female rats; Post RLX Day 5-12) [mOsm/kg H2O]	rRlx serum levels ([1]; 1 mg-air (low rhRlx-air)) [ng/mL]	rRlx serum levels ([1]; 1 mg-hyp (low rhRlx-hyp)) [ng/mL]	rRlx serum levels ([1]; 5 mg-air (hi rhRlx-air)) [ng/mL]	rRlx serum levels ([1]; 5 mg-hyp (hi rhRlx-hyp)) [ng/mL]	Wound closure, % of original wound area (db/db mice; 0.2 mg/kg/day, day 14) [%]	staining for von Willebrand factor VIII-related antigen (new blood vessels) (db/db mice; compared to wounds of vehicle treated animals)	wound histology, Masson's trichrome (db/db mice; day 21-post surgery)	differences in the extent of wound healing vs vehicle control (db/db mice; low dose of rhRlx (0.1 mg/kg/day))
Porcine RLX: lyophilized, purified porcine relaxin (Sherwood and O'Byrne 1974), dissolved in Ringer's solution	−4 ± 1	−14 ± 3	42 ± 1	301 ± 2	39 ± 1* %	289 ± 2*† mOsm/kg H2O	37 ± 1*† %	287 ± 2*† mOsm/kg H2O	40 ± 1	299 ± 2								
rhRLX: recombinant human relaxin, identical in amino acid sequence to the product of the human H2 gene; A chain of 24, B chain of 29 amino acids	−2 ± 1	−12 ± 2	39 ± 0	299 ± 2	37 ± 1* %	291 ± 3*† mOsm/kg H2O	37 ± 1*† %	286 ± 2*† mOsm/kg H2O	40	302	2.9 ± 1.0	3.2 ± 0.4	9.9 ± 2.8	11.5 ± 2.5	64	stronger positive staining	thick, cellular and vascular granulation tissue	small
